Results from ChEMBL document CHEMBL5579901, “Discovery of Novel [1,2,4]Triazolo[1,5-a]pyrimidine Derivatives as Novel Potent S-Phase Kinase-Associated Protein 2 (SKP2) Inhibitors for the Treatment of Cancer” (J Med Chem, 2024).

How the values were obtained:
[1] = target: T1, Cyclin-dependent kinases regulatory subunit 1/S-phase kinase-associated protein 2 (Homo sapiens) (UniProt P61024+Q13309); experiment: Inhibition of GST-tagged SKP2 (unknown origin) binding to His6-tagged CKS1 (unknown origin) at 50 uM preincubated with SKP2 for 10 mins followed by CKS1 addition for 20 mins and measured after by HTRF method relative to control; assay type: protein assay; details: time 30.0 min
T1 sequence (P61024 2-79 limits assumed): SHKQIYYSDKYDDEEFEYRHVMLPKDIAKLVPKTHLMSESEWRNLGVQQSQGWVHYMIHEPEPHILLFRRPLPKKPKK
T1 sequence (Q13309 whole entry partner): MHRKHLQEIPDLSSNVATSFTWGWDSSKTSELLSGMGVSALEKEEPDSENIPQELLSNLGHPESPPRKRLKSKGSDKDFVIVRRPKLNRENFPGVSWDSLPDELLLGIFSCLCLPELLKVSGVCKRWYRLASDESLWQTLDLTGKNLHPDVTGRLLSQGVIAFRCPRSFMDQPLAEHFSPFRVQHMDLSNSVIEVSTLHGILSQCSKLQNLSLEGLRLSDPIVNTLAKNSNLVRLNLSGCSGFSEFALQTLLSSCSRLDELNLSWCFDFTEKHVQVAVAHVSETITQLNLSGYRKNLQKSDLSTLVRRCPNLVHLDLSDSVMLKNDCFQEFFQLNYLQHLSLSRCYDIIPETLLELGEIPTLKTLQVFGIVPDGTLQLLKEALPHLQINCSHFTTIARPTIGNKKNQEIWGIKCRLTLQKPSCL

[2] = target: T2, Cyclin-dependent kinases regulatory subunit 1/S-phase kinase-associated protein 2 (Homo sapiens, UniProt Q13309); experiment: Inhibition of GST-tagged SKP2 (unknown origin) binding to His6-tagged CKS1 (unknown origin) preincubated with SKP2 for 10 mins followed by CKS1 addition for 20 mins and measured after by HTRF method; assay type: protein assay
T2 sequence (P61024 whole entry): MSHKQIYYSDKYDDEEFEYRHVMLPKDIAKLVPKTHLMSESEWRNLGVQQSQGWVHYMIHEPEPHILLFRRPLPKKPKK
T2 sequence (Q13309 whole entry): as the sequence (Q13309 whole entry partner) above

A549 = experiment: Antiproliferative activity against human A549 cells incubated for 48 hrs by MTT assay; assay type: functional, cell-based; details: A549, 48 h
MGC-803 = experiment: Inhibition of cell proliferation in human MGC-803 cells incubated for 72 hrs by MTT assay; assay type: functional, cell-based; details: MGC-803, 72 h
PC-3 = experiment: Inhibition of cell proliferation in human PC-3 cells incubated for 72 hrs by MTT assay; assay type: functional, cell-based; details: PC-3, 72 h
[3] = target: T2, Cyclin-dependent kinases regulatory subunit 1/S-phase kinase-associated protein 2; experiment: Inhibition of GST-tagged SKP2 (unknown origin) binding to His6-tagged CKS1 (unknown origin) incubated for 1 hr by AlphaScreen assay; assay type: protein assay
[4] = target: T1, Cyclin-dependent kinases regulatory subunit 1/S-phase kinase-associated protein 2 (Homo sapiens); experiment: Inhibition of GST-tagged SKP2 (unknown origin) to His6-tagged CKS1 (unknown origin) protein protein interaction at 50 umol/L by HTRF method relative to control; assay type: protein assay; details: dose 50.0 µmol/L

C=CCSc1nc2nc(C)cc(-c3c(OC)cc(OC)cc3OC)n2n1
inhibition [1]: 2.51% | IC50 [2]: > 100 µM

COc1cc(OC)c(-c2cc(C)nc3nc(SCCCc4ccccc4)nn23)c(OC)c1
inhibition [1]: 20.3% | IC50 [2]: > 100 µM

Cc1cc(-c2ccc(C(=O)N3CCN(C)CC3)cc2)n2nc(SCc3ccc(Br)cc3)nc2n1
inhibition [1]: 14.6% | IC50 [2]: > 100 µM

COC(=O)c1ccc(Nc2cc(C)nc3nc(SCc4ccc(Br)cc4)nn23)cc1
inhibition [1]: 12.4% | IC50 [2]: > 100 µM

Cc1cc(-c2cccc(C(=O)O)c2)n2nc(SCc3ccc(Br)cc3)nc2n1
inhibition [1]: 17.9% | IC50 [2]: > 100 µM

COc1cc(OC)c(-c2cc(C)nc3nc(SCc4ccc(C(F)(F)F)cc4)nn23)c(OC)c1
inhibition [1]: 27.1% | IC50 [2]: 93.1 µM

COC(=O)c1cccc(Nc2cc(C)nc3nc(SCc4ccc(Br)cc4)nn23)c1
inhibition [1]: 12.4% | IC50 [2]: > 100 µM

COc1cc(OC)c(-c2cc(C)nc3nc(SCC4CCCC4)nn23)c(OC)c1
inhibition [1]: 28% | IC50 [2]: 62.3 µM

COc1cc(OC)c(-c2cc(C)nc3nc(SCc4cccc5ccccc45)nn23)c(OC)c1
inhibition [1]: 17.4% | IC50 [2]: > 100 µM

COc1cc(OC)c(-c2cc(C)nc3nc(SCc4cccc(Cl)c4Cl)nn23)c(OC)c1
inhibition [1]: 7.29% | IC50 [2]: > 100 µM

COc1cccc(-c2cc(C)nc3nc(SCc4ccc(Br)cc4)nn23)c1
inhibition [1]: 58.7% | IC50 [2]: 40.3 µM

Cc1cc(-c2ccccc2)n2nc(SCc3ccc(Br)cc3)nc2n1
inhibition [1]: 55.3% | IC50 [2]: 45.1 µM

Cc1cc(Cl)n2nc(SCc3ccc(Br)cc3)nc2n1
inhibition [1]: 22% | IC50 [2]: 75.1 µM

Cc1cc(Br)n2nc(SCc3ccc(Br)cc3)nc2n1
inhibition [1]: 47% | IC50 [2]: 68 µM

COc1cc(OC)c(-c2cc(C)nc3nc(SCc4ccc(Br)cc4)nn23)c(OC)c1
inhibition [1]: 69.6% | IC50 [2]: 11.9 µM

COc1cc(OC)c(-c2cc(C)nc3nc(SCc4ccc(F)cc4)nn23)c(OC)c1
inhibition [1]: 24% | IC50 [2]: 98.1 µM

COc1cc(OC)c(-c2cc(C)nc3nc(SCc4ccc(Cl)cc4)nn23)c(OC)c1
inhibition [1]: 9.13% | IC50 [2]: > 100 µM

COc1ccc(-c2cc(C)nc3nc(SCc4ccc(Br)cc4)nn23)cc1
inhibition [1]: 34.6% | IC50 [2]: 72.4 µM

COc1cc(OC)c(-c2cc(C)nc3nc(SCc4cccc(Cl)c4)nn23)c(OC)c1
inhibition [1]: 15.9% | IC50 [2]: > 100 µM

COc1ccccc1-c1cc(C)nc2nc(SCc3ccc(Br)cc3)nn12
inhibition [1]: 27.2% | IC50 [2]: > 100 µM

COC(=O)c1cccc(CSc2nc3nc(C)cc(-c4c(OC)cc(OC)cc4OC)n3n2)c1
inhibition [1]: 10.2% | IC50 [2]: > 100 µM

C#CCSc1nc2nc(C)cc(-c3c(OC)cc(OC)cc3OC)n2n1
inhibition [1]: 5.84% | IC50 [2]: > 100 µM

COc1cc(OC)c(-c2cc(C)nc3nc(SCC4CCC4)nn23)c(OC)c1
inhibition [1]: 20.2% | IC50 [2]: 82.5 µM

COc1cc(C2=NC3=NC(C)=C(C(C)=O)C(c4ccc([N+](=O)[O-])cc4)N3N2)cc(OC)c1OC (configuration not stated)
IC50 (A549): 1.02 µM

Cc1cc(-c2ccc3c(c2)OCCO3)n2nc(SCc3ccc(Br)cc3)nc2n1
inhibition [1]: 37.4% | IC50 [2]: 70.9 µM

COc1cc(OC)c(-c2cc(C)nc3nc(SCC4CCOCC4)nn23)c(OC)c1
inhibition [1]: 16.3% | IC50 [2]: > 50 µM

COc1cc(OC)c(-c2cc(C)nc3nc(SCc4ccncc4)nn23)c(OC)c1
inhibition [1]: 10% | IC50 [2]: > 100 µM

O=c1[nH]cc(F)c(=O)[nH]1 [FLUOROURACIL]
IC50 (MGC-803): 44.1 µM | IC50 (PC-3): 10.2 µM

COc1cc(OC)c(-c2cc(C)nc3nc(SCc4ccccc4Br)nn23)c(OC)c1
inhibition [1]: 43% | IC50 [2]: 66.7 µM

COc1cc(OC)c(-c2cc(C)nc3nc(SCc4cnc(Cl)s4)nn23)c(OC)c1
inhibition [1]: 31.5% | IC50 [2]: 72.5 µM

Cc1cc(-c2ccc(-c3ccccc3)cc2)n2nc(SCc3ccc(Br)cc3)nc2n1
inhibition [1]: 66.2% | IC50 [2]: 10.5 µM

COc1cc(OC)c(-c2cc(C)nc3nc(SCC4CCCCC4)nn23)c(OC)c1
inhibition [1]: 60% | IC50 [2]: 17.4 µM

Cc1cc(-c2ccc(C(=O)O)cc2)n2nc(SCc3ccc(Br)cc3)nc2n1
inhibition [1]: 20.1% | IC50 [2]: > 100 µM

COc1cc(OC)c(-c2cc(C)nc3nc(SCc4cccc(Br)c4)nn23)c(OC)c1
inhibition [1]: 42.5% | IC50 [2]: 61 µM

COc1cc(OC)c(-c2cc(C)nc3nc(SCc4ccc(I)cc4)nn23)c(OC)c1
inhibition [1]: 41.7%

COc1cc(-c2cc(C)nc3nc(SCc4ccc(Br)cc4)nn23)cc(OC)c1OC
inhibition [1]: 58.8% | IC50 [2]: 30.9 µM

O=C(OCC12CC3CC(CC(C3)C1)C2)c1ccc(NCc2cc(O)ccc2O)cc1
IC50 [3]: 36.6 µM

COC(=O)c1ccc(CCc2cc(O)ccc2O)cc1
IC50 [3]: 36.6 µM

COc1cc(OC)c(-c2cc(C)nc3nc(SCc4ccccc4)nn23)c(OC)c1
inhibition [1]: 60% | IC50 [2]: 14.7 µM

CCCSc1nc2nc(C)cc(-c3c(OC)cc(OC)cc3OC)n2n1
inhibition [1]: 24.5% | IC50 [2]: > 100 µM

COc1cccc(OC)c1-c1cc(C)nc2nc(SCc3ccc(Br)cc3)nn12
inhibition [1]: 37% | IC50 [2]: 75.6 µM

CCSc1nc2nc(C)cc(-c3c(OC)cc(OC)cc3OC)n2n1
inhibition [1]: 3.73% | IC50 [2]: > 100 µM

Cc1cc(-c2cccc(C(=O)N3CCN(C)CC3)c2)n2nc(SCc3ccc(Br)cc3)nc2n1
inhibition [1]: 23.4% | IC50 [2]: > 100 µM

COc1ccc(N2C(=O)c3ccccc3C2Cc2cc(-c3c(OC)cc(O)cc3OC)n3ncnc3n2)cc1 (configuration not stated)
inhibition [4]: 54%

COc1cc(OC)c(-c2cc(C)nc3nc(SCc4ccc(C)cc4)nn23)c(OC)c1
inhibition [1]: 11.5% | IC50 [2]: > 100 µM

COc1ccc(CSc2nc3nc(C)cc(-c4c(OC)cc(OC)cc4OC)n3n2)cc1
inhibition [1]: 11.5% | IC50 [2]: > 100 µM
